The record followed here is PubChem BioAssay (NCI).

Among the test systems are SF-268 CNS; MDA-N; 786-0 renal; MDA-MB-435; SNB-19 CNS; BT-549 breast; SR leukemia; MDA-MB-231 breast; DU-145 prostate; KM12 colon; SK-MEL-2 melanoma; M14 melanoma.
Common to all, as to test: NCI-60 cell line screen, 48 h

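Values below derive from 48-hour exposures of cells grown in 96-well plates, with endpoints linearly interpolated between the two concentrations bracketing the appropriate inhibition level. TGI is the concentration that stops growth completely.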 Bounds are passed on as bounds.

`CC(=O)OCC1=C(C)C(OC(=O)C(OC(C)=O)[C@@H](NC(=O)c2ccccc2)c2ccccc2)CCC1(C)C` (some centres not stated): the TGI in the assay with SF-268 CNS, in the assay on MDA-N, in the assay with 786-0 renal, in the assay on MDA-MB-435, in the assay with SNB-19 CNS and with BT-549 breast was above 100 µM throughout. Besides, the TGI in the assay with SR leukemia, in the assay on MDA-MB-231 breast, in the assay with DU-145 prostate and in the assay on KM12 colon was above 100 µM each time.
`O=[N+]([O-])c1cccnc1NCC1(CO)CC(Cc2ccccc2)C1` (configuration not stated): the TGI in the assay on SK-MEL-2 melanoma, in the assay on SF-268 CNS, in the assay with MDA-N, with 786-0 renal, with MDA-MB-435 and in the assay on BT-549 breast was above 100 µM throughout. The TGI in the assay with SR leukemia, in the assay with MDA-MB-231 breast, with DU-145 prostate and with KM12 colon was above 100 µM throughout.
For the compound `CN(CCc1ccc(N)cc1)[C@H]1CCCC[C@H]1N1CCCC1`, the TGI in the assay with SK-MEL-2 melanoma, in the assay on SF-268 CNS, with MDA-N, in the assay with 786-0 renal, with M14 melanoma and in the assay with MDA-MB-435 was above 100 µM in each case. For the same compound, the TGI in the assay with SNB-19 CNS, in the assay with BT-549 breast, in the assay on MDA-MB-231 breast, with DU-145 prostate and in the assay with KM12 colon was above 100 µM in each case.
Regarding `Nc1nc(Cl)cc(Nc2cc(Cl)cc(Cl)c2)n1`, the TGI with SK-MEL-2 melanoma came out at 38.1 µM; in the assay with SF-268 CNS, 40.4 µM; in the assay on MDA-N, 48.8 µM; in the assay with 786-0 renal, 33.7 µM; in the assay on M14 melanoma, 35.4 µM; with MDA-MB-435, 37.1 µM. Moreover, the TGI worked out at 47.5 µM in the assay on SNB-19 CNS; 45.4 µM in the assay on BT-549 breast; 36.3 µM in the assay on MDA-MB-231 breast; 47.3 µM with DU-145 prostate; 37.7 µM in the assay with KM12 colon.
For `Cc1ccc2c(n1)C(=O)c1ccccc1C2=O`, the TGI is above 89 µM with SK-MEL-2 melanoma; above 100 µM in the assay on SF-268 CNS; above 59.9 µM in the assay with MDA-N; above 100 µM in the assay with 786-0 renal; above 75.5 µM in the assay with M14 melanoma; 32.6 µM with MDA-MB-435. Also, the TGI was above 87.9 µM with SNB-19 CNS; 89 µM in the assay with BT-549 breast; 75.5 µM with MDA-MB-231 breast; 36.4 µM with DU-145 prostate; above 100 µM with KM12 colon.
In the case of `O=c1[nH]nc(Cc2ccccc2)n1Nc1ccccc1`, the TGI with SK-MEL-2 melanoma, in the assay on SF-268 CNS, with MDA-N, with 786-0 renal, in the assay on MDA-MB-435 and in the assay on BT-549 breast was above 100 µM throughout. Further, the TGI in the assay on SR leukemia, in the assay with MDA-MB-231 breast, with DU-145 prostate and in the assay on KM12 colon was above 100 µM each time.
On to `COC(=O)/N=[N+](\[O-])C(c1ccc(OC)cc1)C1CCCCC1` (configuration not stated), for which the TGI with SK-MEL-2 melanoma was 31.8 µM; in the assay with SF-268 CNS it was 37.9 µM; with MDA-N, 12 µM; with 786-0 renal, 32.4 µM; in the assay with M14 melanoma, 13.1 µM; with MDA-MB-435, 26.4 µM. Moreover, the TGI in the assay on SNB-19 CNS was above 54.2 µM; in the assay on BT-549 breast, 43 µM; with MDA-MB-231 breast, 32.2 µM; in the assay on DU-145 prostate, 10.8 µM; in the assay on KM12 colon it was 16.7 µM.
In the case of `CCOC(=O)CCC(NC(=O)c1ccc(N2CCN(c3c(C)nc(N)nc3N)CC2)cc1)C(=O)OCC` (configuration not stated), the TGI in the assay on SK-MEL-2 melanoma is above 100 µM; with SF-268 CNS it was above 100 µM; in the assay with MDA-N, above 54.7 µM; in the assay on 786-0 renal it was above 100 µM; with M14 melanoma, above 46 µM; in the assay with MDA-MB-435, above 48.1 µM. Further, the TGI in the assay with SNB-19 CNS is above 24.7 µM; in the assay with BT-549 breast it was above 100 µM; in the assay on MDA-MB-231 breast it was above 100 µM; with DU-145 prostate, above 100 µM; with KM12 colon it was above 100 µM.
For the compound `CSC1=C(c2ccc(Cl)cc2)SC(N2CCCCC2)N1c1ccc([N+](=O)[O-])cc1` (configuration not stated), the TGI is 54.3 µM in the assay with SK-MEL-2 melanoma; above 100 µM with SF-268 CNS; above 100 µM in the assay with MDA-N; above 100 µM with 786-0 renal; above 100 µM in the assay on M14 melanoma; above 100 µM in the assay on MDA-MB-435. Moreover, the TGI with SNB-19 CNS was above 100 µM; with BT-549 breast, above 100 µM; in the assay with SR leukemia, above 100 µM; in the assay with MDA-MB-231 breast it was 77.1 µM; in the assay on KM12 colon, above 100 µM.
Regarding `O=[N+]([O-])c1cn[n+]([O-])c2ccccc12`, the TGI in the assay with SF-268 CNS was found to be 17.9 µM; in the assay with MDA-N it was 27.5 µM; with 786-0 renal, 12.3 µM; with M14 melanoma, 13 µM; in the assay on MDA-MB-435, 27.8 µM; with SNB-19 CNS it was 25.2 µM. Further, the TGI in the assay with BT-549 breast turned out to be 18.8 µM; in the assay with MDA-MB-231 breast, 27.3 µM; in the assay with DU-145 prostate it was 3.79 µM; in the assay on KM12 colon it was 18.4 µM.
For `CNC1=CC(=O)C2=C(C1=O)[C@H]1CC[C@]3(C)C(=O)CC[C@H]3[C@@H]1CC2`, the TGI is 17.1 µM in the assay with SK-MEL-2 melanoma; 25 µM in the assay on MDA-N; 38.3 µM in the assay on 786-0 renal; 28 µM with M14 melanoma; 13.1 µM with MDA-MB-435; 40.8 µM in the assay with SNB-19 CNS. The TGI with BT-549 breast is 36 µM; in the assay on SR leukemia, above 60.8 µM; in the assay with MDA-MB-231 breast, above 64.8 µM; with DU-145 prostate, 28.8 µM; with KM12 colon, 23.6 µM.
With `Cc1c(NC(=S)Nc2ccc(Cl)cc2)c(=O)n(-c2ccccc2)n1C`, the TGI in the assay on SF-268 CNS, in the assay on MDA-N, in the assay on 786-0 renal, in the assay with M14 melanoma, with MDA-MB-435 and with SNB-19 CNS was above 100 µM throughout. Also, the TGI in the assay with BT-549 breast, in the assay on SR leukemia, in the assay with MDA-MB-231 breast, in the assay on DU-145 prostate and in the assay on KM12 colon was above 100 µM throughout.
On to `CC(C)CCn1c(=O)c2c(=O)[nH][nH]c2c2ccccc21`, for which the TGI in the assay on MDA-N, in the assay with 786-0 renal, in the assay on MDA-MB-435, in the assay on SNB-19 CNS, in the assay with BT-549 breast and in the assay on SR leukemia was above 100 µM each time. Besides, the TGI with MDA-MB-231 breast, with DU-145 prostate and with KM12 colon was above 100 µM in each case.
